Assays:
[1] = tested on: HPAECs; assay: Release of IL-8 in endothelial cells (ELISA); assay type: cell-based, human; conditions: NECA 10 μM with Compound A 100 nM, 18 hr
Protocol: (§1) HPASM were grown in smooth muscle growth medium (SMGM-2). HPAECs were grown in endothelium growth medium (EGM-2). Before treatment, cells were seeded in 24-well plates and allowed to grow to ˜80% confluency. Cells were washed and then incubated in serum free basal medium in the absence or presence of adenosine receptor agonists and antagonists. In the proliferation assays, HPASM were incubated in 50% medium collected from HPAEC cells treated with vehicle or NECA.
(§2) IL-6 and G-CSF were measured using human 30-plex luminex kit from Invitrogen (Carlsbad, Calif.). IL-8, endothelin-1, thromboxane B2 were measured using ELISA (kits obtained from Invitrogen, AssayDesigns (Ann Arbor, Mich.), and Caymen Biomedicals (Ann, Arbor, Mich.) respectively).
HPAECs were incubated in basal medium in the absence or presence of NECA (N-ethylcarboxamide adenosine) at various concentrations (0.1 μM, 1 μM, and 10 μM) and Compound A (100 nM) for 18 hours. NECA is a known adenosine agonist of A1 and A2 subtypes. The amount of IL-8, provided in pg/mL, was measured by ELISA.

[2] = tested on: HPAECs; assay: Endothelin-1 release from HPAECs (ELISA); assay type: cell-based, human; conditions: NECA 10 μM with Compound A 100 nM, 18 hr
Protocol: as §1, §2
HPAECs were incubated in the absence or presence of NECA at various concentrations (0.1 μM, 1 μM, and 10 μM) and Compound A (100 nM) for 18 hours. The amount of ET-1, provided in pg/mL was measured by the ELISA protocol discussed above.

[3] = tested on: HPASMs; assay: Cytokine release from HPASMs (IL-6, IL-8, G-CSF); assay type: cell-based, human; conditions: NECA 10 μM with Compound A 100 nM, 18 hr
Protocol: as §1, §2
(§3) HPASMs were incubated in the absence or presence of NECA at various concentrations (0.1 μM, 1 μM, and 10 μM) and Compound A (100 nM) for 18 hours.

[4] = tested on: HPASMs; assay: Smooth muscle cell migration, Boyden chamber with conditional media; assay type: cell-based, human; conditions: conditional medium from HPASMs, NECA 10 μM and Compound A 100 nM, 18 hours; migration 24 hours
Protocol: Conditional media were collected from HPASMs treated with vehicle, NECA (10 μM), NECA (10 μM) and Compound A (100 nM), or NECA (10 μM) and an anti-IL-6 antibody (1 ng/mL, purchased from Invitrogen) for 18 hours were added to the lower wells of Boyden chamber assay systems as chemoattractants. HPASMs were allowed to migrate for 24 hours. […] It was also observed that IL-8 neutralizing antibody had no effect on cell migration. […] The released IL-6 in turn enhances smooth muscle cell migration (see FIG. 10B for illustration).

[5] = tested on: HPASMs; assay: Thromboxane B2 release from HPASMs (ELISA); assay type: cell-based, human; conditions: NECA 10 μM with Compound A 100 nM, 18 hours
Protocol: as §1, §2, §3

[6] = tested on: HPASMs; assay: Expression of collagen, extracellular matrix proteins and enzymes, real-time RT-PCR array; assay type: cell-based, human; conditions: NECA 10 μM together with Compound A 100 nM, 1.5 hours
Protocol: (§4) Gene expression was determined using real-time RT-PCR with Stratagene PCR equipment (La Jolla, Calif.). Zhong H., et al. “A2B adenosine receptors increase cytokine release by bronchial smooth muscle cells, “American Journal of Respiratory Cell and Molecular Biology, 30(1): 118-125 (2004).
HPASMs were incubated in the presence of NECA (10 μM) or NECA (10 μM) together with Compound A (100 nM) for 1.5 hours. A real-time-RT-PCR array focusing on genes involved in tissue remodeling were conducted on the RNAs isolated from the HPASMs. NECA increased the mRNA expression of ADAMTS1, ADAMTS8, CDH1, MMPI, MMP12, HAS1, ITGA7, COL1A1, COL8A1 and CTGF (FIG. 12A-B).

[7] = tested on: HPASMs; assay: Effect of NECA-activated HPAECs on proliferation of HPASMs (cell count); assay type: cell-based, human; conditions: supernatant of HPAECs treated with NECA 10 μM and Compound A 100 nM for 18 hours; HPASMs 18 hours
Protocol: as §1
Cell supernatants were collected from HPAECs treated with vehicle (control medium), NECA (10 μM, NECA medium) or NECA and Compound A (100 nM) for 18 hours. These cell supernatants (diluted 1:1 in […] basal medium) with or without ambrisentan (30 nM) were used to incubate HPASMs for 18 hours. Cells were counted. NECA-HPAEC medium increased cell number of HPASMs at 18 hours compared to control-HPAEC medium.

[8] = tested on: HPASMs; assay: NECA-induced expression of NOTCH3 in HPASMs (real-time RT-PCR); assay type: cell-based, human; conditions: NECA 10 μM along with Compound A 100 nM, 1.5 hours
Protocol: as §4
HPASMs were incubated with NECA (10 μM) or NECA (10 μM) along with Compound A (100 nM) for 1.5 hours. The expression of NOTCH3 was measured by quantitive real-time RT-PCR using the methodologies described above.

[9] = tested on: adenosine deaminase (ADA)-deficient mouse model of adenosine-dependent pulmonary injury; assay: Vascular wall thickening in the lungs of ADA-deficient mice (H&E staining); assay type: in vivo; conditions: 1 mg/kg intraperitoneal twice daily for 14 days, lungs at postnatal day 38
Text: The model system being used is the adenosine deaminase (ADA)-deficient mouse model of adenosine-dependent pulmonary injury.
This example follows the protocol described in Sun C X, et al. “Role of A2B adenosine receptor signaling in adenosine-dependent pulmonary inflammation and injury,” J. Clin. Invest., 116(8):2173-2182 (2006), which is hereby incorporated by reference.
All ADA-deficient mice were maintained on ADA enzyme therapy from birth to postnatal day 21 to prevent defects in alveolar development. Banerjee, et al. Am. J. Respir. Cell Mol. Biol. 30-38-50 (2004). ADA enzyme therapy was discontinued at postnatal day 21, and 3 days later the mice were given intraperitoneal injections of 1 mg/kg of Compound A twice daily for 14 days.
Lungs were collected from postnatal day 38 mice and prepared routinely for sectioning and H&E staining Tissues were taken from control (ADA+) mice (FIG. 3A), the ADA-deficient mice (FIG. 3B), and the ADA-deficient mouse treated with Compound A (FIG. 3C). Sections are representative of 6-8 different mice from each treatment group.

[10] = tested on: Male C57BL6 mice treated with bleomycin (BLM); assay: Bleomycin-induced pulmonary hypertension associated with chronic lung disease in mice; assay type: in vivo
Protocol: Methods: Male C57BL6 mice were treated with bleomycin (BLM) at 0.035 units per mouse, or vehicle (phosphate buffered saline (PBS)) intra-peritoneally twice weekly for 4 weeks. When pulmonary fibrosis was established, on day 15, mice were provided with special chow containing an A2B receptor antagonist, Compound A (˜10 mg/kg/day dose), for the next 18 days (FIG. 15). In contrast, control groups received normal chow.
On day 33, right ventricle systolic pressure (RVSP), systemic blood pressure, heart rate and lung function measurements were performed. Additionally, the lungs were collected for immunohistochemistry (IHC) for α-smooth muscle actin (αSMA).
Statistical Analysis: All data were analyzed using a 1-way ANOVA with a Newman-Keuls post test. The software used to conduct the statistical analysis was Graph-Pad Prism v5.00 (La Jolla Calif.). In all related figures, significance levels: *P<0.05, **[…]<P<0.01, ***P<0.001 refer to comparisons between PBS and BLM groups; significance levels: #P<0.05, # # 0.001<P<0.01, # # # P<0.001 refer to comparisons between BLM and BLM+Compound A groups. All values in the figures represent mean±SEM (standard error or the mean) for 5-8 mice per group.

[11] = mice, Compound A ~10 mg/kg/day in chow day 15 to 33, day 33
[12] = mice, Compound A ~10 mg/kg/day in chow day 15 to 33, α-SMA immunostaining
[13] = mice, Compound A ~10 mg/kg/day in chow, Flexivent

NECA-induced mRNA expression of ADAMTS1, ADAMTS8, CDH1, MMPI, MMP12, HAS1, ITGA7, COL1A1, COL8A1 and CTGF [6]: reduced
Structure (SMILES): CCCn1c(=O)c2[nH]c(-c3cnn(Cc4cccc(C(F)(F)F)c4)c3)nc2n(CC)c1=O [Compound A, 3-ethyl-1-propyl-8-(1-(3-(trifluoromethyl)benzyl)-1H-pyrazol-4-yl)-1H-purine-2,6(3H,7H)-dione]
NECA-induced release of IL-8 [1]: markedly reduced
NECA-induced release of ET-1 [2]: markedly reduced
NECA-induced release of G-CSF [3]: markedly reduced
NECA-induced release of IL-6 [3]: markedly reduced
NECA-induced release of IL-8 [3]: markedly reduced
NECA-induced increase in smooth muscle cell migration [4]: inhibited
NECA-induced release of thromboxane B2 [5]: markedly reduced
NECA induced proliferation of HPASMs [7]: inhibited
increase of NOTCH3 expression induced by NECA [8]: inhibited
vascular wall thickening [9]: drastically reduced
BLM-decreased arterial oxygenation levels ([10]; awake mice, Compound A ~10 mg/kg/day in chow, pulse oximetry): attenuated
BLM-induced increase of interleukin (IL)-6 level ([10]; mice, BALF and plasma, day 33, ELISA, Compound A ~10 mg/kg/day in chow): significantly attenuated
BLM-induced increase in peri-vascular fibrosis (total collagen levels in the lung) ([10]; mice, Compound A ~10 mg/kg/day in chow day 15 to 33, Masson's trichrome): attenuated
BLM-induced increase in RV hypertrophy [10, 11]: attenuated
BLM-induced increase in RVSP [10, 11]: attenuated
BLM-induced increase in extent of vascular muscularization [10, 12]: attenuated
BLM-induced increase in number of muscularized vessels [10, 12]: attenuated
BLM-increased dynamic resistance of the lungs [10, 13]: attenuated
BLM-increased quasi-static elastance [10, 13]: attenuated
BLM-increased tissue damping [10, 13]: attenuated
BLM-induced increase of ET-1 ([10]; mice, plasma (ELISA) and pulmonary vessel wall, Compound A ~10 mg/kg/day in chow): significantly attenuated

Reference: patent US20120003329A1, “Use of A2B Adenosine Receptor Antagonists for Treating Pulmonary Hypertension” (Gilead Sciences, Inc., priority 2010, published 2012)
